Experimental data: US20050037450A1, “Novel targets for lithium therapy” (Duke University, priority 2002, published 2005)
Where “and” joins values, the source holds several entries; their conditions need not be identical. Identical values can stand only once.

Columns and labels:
BPntase = conditions: cited from earlier work
cultured IMCD cells = experiment: cAMP production during stimulation of cultured IMCD cells; assay type: cell-based, mouse; conditions: lithium present
[1] = test system: intracellular PAP in met3Δ cells; assay type: cell-based, S. cerevisiae
Method: (§1) Yeast were grown in CM/ura^− containing 2% galactose to mid-log phase. The cultures were washed extensively and resuspended in the CM/ura^−/met^− media with the noted inclusions. PAP was measured using the ligand binding assay described in Experimental Procedures. Intracellular PAP concentrations were normalized to the amount of soluble protein extracted from the cultures.
(§2) For the assay of intracellular PAP concentrations, appropriate yeast strains were grown in CM/ura^− to mid-log phase (OD600=1.0). The cells were centrifuged and washed extensively in sterile water. The cells were resuspended in CM/ura^−/met^− containing methionine (20 μg/ml), lithium, or chlorate as appropriate. The cultures were incubated with shaking at 30° C. At various time points, 2 ml of culture was removed and centrifuged. The cells were washed with 1 ml of water. 250 μl was centrifuged and resuspended in 200 μl K-lysis buffer. 200 μl of glass beads were added, and the cells were disrupted by vigorous bead beating. The amount of soluble protein in this extract was determined using a Bradford dye-binding assay (BioRad, Hercules, Calif., United States of America) with bovine serum albumin as a standard. The remaining 750 μl of washed cells was spun down and resuspended in 250 μl of 2 N HClO4. This was incubated at 4° C. for 20 min, when 250 μl of 1.8 N KOH, 0.4 N KHCO3 were added to neutralize and precipitate the HClO4. The extract was centrifuged at 4° C. to remove the debris, and the supernatant was lyophilized using a rotary evaporator. The dried extracts were frozen at −80° C. for no more than one week prior to use. Extracts were reconstituted in 100 μL of 200 mM HEPES, pH 7.5 and again centrifuged to remove debris. 5′ [^32P] 3′, 5′ PAP was created as described (Spiegelberg, 1999). The GST-PST assay was performed by mixing 10 μL of standard PAP, treated as above, or 10 μL of sample diluted approximately 1:1000 in K-lysis buffer, with 10 μL of radiolabeled PAP (approximately 10,000 CPM). Eighty microliters of a reaction mix containing 100 mM HEPES, pH 7.0, 5 mM DTT, 0.2 mg/ml BSA, and 1 μg of GST-PST were added to start the binding reaction. The reactions were allowed to equilibrate for at least one hour at room temperature. Following incubation, 20 μl of a 50:50 slurry of glutathione sepharose in K-lysis buffer was added. The tubes were incubated with gentle mixing for 10 min at room temperature. The protein with bound PAP was pulled down by centrifugation for 2 min at room temperature. 80 μl of the supernatant, containing free PAP, was removed to a scintillation vial and 200 μl of K-lysis buffer was added to wash the resin. The tubes were centrifuged again and the 200 μl wash was transferred to the original scintillation vials. Radioactivity was determined by adding 5 ml of […] ECONO2™ scintillation fluid (Fisher Scientific, Hampton, N.H., United States of America) and counted in a liquid scintillation counter. The counts were converted to percent isotope bound, and a standard curve was prepared by plotting percent bound vs. the logarithm of the PAP concentration. This standard curve was used to back-calculate the PAP concentration in the unknown samples.
(§3) The GST-PST binding assay was used to determine relative intracellular PAP concentrations in yeast strains grown under various conditions. The PAP concentration determined in the binding assay was normalized to the total soluble protein in parallel extracts, and background was eliminated by reporting only the signal that was sensitive to in vitro degradation by purified recombinant Hal2p. The assay was characterized further by analyzing the intracellular PAP concentration of wild type yeast grown in the presence of lithium.

[2] = test system: intracellular PAP in met14Δ cells; assay type: cell-based, S. cerevisiae
Method: as §1, §2, §3

Wild type yeast = experiment: Lithium inhibition of yeast growth (OD600), wild type; assay type: cell-based, S. cerevisiae; conditions: CM/ura−/met−, 24 hr at 30° C.
Method: FIG. 7 is a graph showing met3Δ and met14Δ strains are lithium resistant. Wild type, met3Δ, and met14Δ yeast were resuspended at 5×10^4/ml in CM/ura^− containing 2% dextrose and 1.25 μg/ml methionine. Growth at various concentrations of LiCl was measured after a 24 hr incubation at 30° C. The growth is plotted relative to growth in media lacking lithium.
FIG. 10 is a graph showing methionine supplementation induces lithium resistance. Wild type yeast were inoculated at 5×10^4 cells per ml into synthetic media with or without methionine containing the noted concentration of LiCl. Growth was assayed by spectrophotometry following 48 hrs of growth at 30° C.
Wild type yeast were grown in CM/ura^− containing 2% galactose to mid-log phase. The cultures were washed and resuspended at 5×10^5 cells/ml in CM/ura^−/met^− containing the noted lithium and chlorate concentrations. Following growth for 24 hr at 30° C., the cultures were resuspended, and growth was measured by determining the absorbance at λ=600 nm.
Since methionine effects transcriptional down regulation of the MET3 and MET14 gene products in wild type yeast, the relative lithium sensitivities of the met3Δ and met14Δ strains were assayed in growth media containing reduced methionine (1.25 μg/ml). The use of limited methionine allowed for the comparison of the relative sensitivity to lithium of yeast expressing (wild type) or lacking (met3Δ and met14Δ) PAPS synthetase activities.
The yeast system was used to determine if chlorate could be used to effect a relevant decrease in the accumulation of PAP in the presence of lithium. […] The decrease in PAP accumulation was physiologically relevant since chlorate produced a protective effect in the presence of lithium. […] When 25 mM NaClO3 is included in the culture medium, the growth inhibition is abated, with the IC50 increasing to approximately 80 mM LiCl (FIG. 11)

[3] = test system: intracellular PAP in wild type yeast; experiment: Intracellular PAP concentration by GST-PST binding assay, wild type yeast; assay type: cell-based, S. cerevisiae
Method: as §1
as §2, with “This standard curve was used to back-calculate the PAP concentration in the unknown samples.” left out
as §3, with “The assay was characterized further by analyzing the intracellular PAP concentration of wild type yeast grown in the presence of lithium.” left out

adenylate cyclase = conditions: preparations of native adenylate cyclase-containing membranes; P-site inhibitor; read-out: IC50 for inhibition of adenylate cyclase; cited from earlier work
[4] = biological target: T1, GST-PST (mouse phenol-preferring sulfotransferase fused to GST) (Mus musculus, UniProt P52840); experiment: Binding of radiolabeled PAP to GST-PST (Scatchard); conditions: 100 nM purified GST-PST; Scatchard plot
T1 construct: The PST open reading frame was subcloned into the BamHI and NotI sites of pGEX4T-1; made in house; host or cells: bacteria (pGEX4T-1)
Method: FIG. 8 is a graph showing binding of PAP to GST-PST. Binding of radiolabeled PAP to 100 nM purified GST-PST was assayed in the presence of various concentrations of unlabeled PAP. […] The data are linear and intersect the y-axis at [Sb]/[Sf]=2.8.
Measurement of intracellular PAP concentrations. A novel isotope binding competition assay was developed to measure intracellular concentrations of PAP. The concentration of PAP in lysates was determined by the binding of radiolabeled PAP to the enzyme phenol (aryl) sulfotransferase (PST), which uses PAP as a cofactor (Yang, 1996b). […] The open reading frame was amplified by PCR using the primers 5′ […] (SEQ ID NO: 15) and 5′ […] (SEQ ID NO: 16) where the underlined sequences correspond to sequence in the PST open reading frame. The PCR product was gel purified and ligated into the pCR2.1 vector. […] The PST open reading frame was subcloned into the BamHI and NotI sites of pGEX4T-1 to create a bacterial expression vector in which PST was expressed in frame downstream of GST (GST-PST). […]
For the assay of intracellular PAP concentrations, appropriate yeast strains were grown in CM/ura^− to mid-log phase (OD600=1.0). […] The amount of soluble protein in this extract was determined using a Bradford dye-binding assay (BioRad, Hercules, Calif., United States of America) with bovine serum albumin as a standard. […]

T1 sequence (P52840 whole entry, the tested form may be a part): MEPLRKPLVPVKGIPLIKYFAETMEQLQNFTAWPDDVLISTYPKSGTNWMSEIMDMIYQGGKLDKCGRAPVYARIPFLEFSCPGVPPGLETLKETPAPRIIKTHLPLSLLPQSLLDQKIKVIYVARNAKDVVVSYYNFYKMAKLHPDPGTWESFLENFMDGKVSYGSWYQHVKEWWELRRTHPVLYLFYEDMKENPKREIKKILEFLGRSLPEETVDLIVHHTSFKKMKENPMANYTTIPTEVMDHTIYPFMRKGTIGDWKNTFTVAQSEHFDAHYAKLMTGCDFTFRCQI

Nc1ncnc2c1ncn2[C@@H]1O[C@H](COP(=O)(O)OS(=O)(=O)O)[C@@H](OP(=O)(O)O)[C@H]1O [3′-phosphoadenosine 5′-phosphosulfate]
Vmax of BPntase substrate (BPntase; removal of 3′-phosphate): 40 µmol/min/mg | Km (BPntase; removal of 3′-phosphate, read-out: Km of BPntase substrate): 0.5 µM

[O-][Cl+2]([O-])O [chlorate]
Effect of chlorate on accumulation of cAMP (cultured IMCD cells): partially restored | Fold PAP accumulation with chlorate ([1]; met3Δ expressing hPAPSS2, 100 mM lithium plus 25 mM NaClO3): 27.0 fold | Fold PAP accumulation with chlorate ([2]; met14Δ expressing hPAPSS2, 100 mM lithium plus 25 mM NaClO3): 22.1 fold | Effect of chlorate on sensitivity of yeast growth to lithium (Wild type yeast): reduces sensitivity | Fold PAP accumulation with chlorate ([3]; wild type, 100 mM lithium plus 25 mM NaClO3): 30.8 fold | Effect of chlorate on lithium-dependent PAP accumulation / production ([3]; yeast, lithium present): inhibited production of PAP in vivo

Nc1ncnc2c1ncn2[C@@H]1O[C@H](COP(=O)(O)O)[C@@H](OP(=O)(O)O)[C@H]1O [PAP, 3′-phosphoadenosine 5′-phosphate]
IC50 (adenylate cyclase): ~50 µM | Kd [4]: ~0.035 µM and 0.0357 µM

CSCC[C@H](N)C(=O)O [methionine]
Effect of methionine on PAP accumulation ([1]; met3Δ expressing hPAPSS2 from galactose-inducible vector, lithium present): little effect | Effect of methionine on PAP accumulation ([2]; met14Δ expressing hPAPSS2 from galactose-inducible vector, lithium present): little effect | Intracellular PAP concentration with methionine ([3]; wild type, lithium present, methionine 20 μg/ml in media): 2.3 nmol/mg

O=P(O)(O)O[C@H]1[C@H](O)[C@@H](O)[C@H](OP(=O)(O)O)[C@@H](O)[C@H]1O [inositol 1,4-bisphosphate]
Ki (BPntase; read-out: Ki, competitive inhibition of BPntase): 15 µM
